Measurements reported in patent US8247211B2, “Glycopeptide antibiotics” (American Cyanamid Company, priority 2001, dated 2012).
In brackets after ≈: the same amount, converted by molar mass.

Legend:
Escherichia coli = test: In vitro antibacterial evaluation: minimum inhibitory concentration (MIC), broth dilution method; assay type: cell-based; conditions: strain GC 4560
In short: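 Inoculum: 5×10^5 CFU/mL. Range: 64-0.06 μg/mL. Medium: Muller-Hinton II […]; NCCLS M7-A2 broth dilution. Endpoint: lowest concentration inhibiting growth. Strains include methicillin-, penicillin- and/or vancomycin-resistant clinical isolates.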

[1] = system: Staphylococcus aureus-SMITH (GC 4543); test: Acute lethal infection in mice (ED50); assay type: in vivo; conditions: female CD-1 mice, intraperitoneal challenge, intravenous dose 30 min. after infection, 7 day survival ratios
In short: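 IP bacterial challenge, female CD-1 mice; inoculum lethal to untreated controls in 24-48 hr. IV dosing in saline or 5% dextrose 30 min post-infection, 5 mice/dose. ED50 from 7-day survival, 3 tests pooled.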

[2] = Anatomic pathology (heart and kidney histopathology) in mice; assay type: in vivo, CD-1 mice; conditions: 20 mg/kg intravenously daily for 9 days, microscopic histopathology on day 10
Protocol: 20-day-old CD-1 mice were divided into a vehicle control group (5 mice) and a treatment group (5 mice). Samples of glycopeptide antibiotics were administered at 20 mg/kg intravenously daily for 9 days.
Samples of tissues from necropsied mice were formalin-fixed, paraffin-embedded, sectioned, stained with hematoxylin and eosin, and examined microscopically. Histopathologic findings were recorded. These findings were subjectively graded on a scale corresponding to slight, mild, moderate, marked and severe as compared to untreated controls.

Enterococcus sp. = test: In vitro antibacterial evaluation: minimum inhibitory concentration (MIC), broth dilution method; assay type: cell-based; conditions: for MIC Enterococcus avium (GC 4558): strain GC 4558; for MIC Enterococcus faecalis (GC 4553): strain GC 4553
In short: (§1)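 NCCLS M7-A2 broth dilution with Mueller-Hinton II, testing 64-0.06 μg/mL antibiotic against 5×10^5 CFU/mL inocula. Test strains include recent methicillin-, penicillin- or vancomycin-resistant clinical isolates. MIC is the lowest concentration preventing growth.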

Streptococcus sp. = test: as above; assay type: cell-based
In short: as §1

Staphylococcus sp. = test: as above; assay type: cell-based; conditions: broth dilution, 18 hours at 35° C.
In short: as §1

[3] = Streptococcus pneumoniae (GC 1894), broth dilution, 18 hours at 35° C.
[4] = Streptococcus pneumoniae (ATCC 6301), broth dilution, 18 hours at 35° C.
[5] = Streptococcus pneumoniae (GC 4565), broth dilution, 18 hours at 35° C.
[6] = Streptococcus pyogenes (GC 4563), broth dilution, 18 hours at 35° C.

## CC(c1ccccc1)C1NC(=O)CNC(=O)C(CO)NC(=O)C(C(O)C2CN(Cc3ccc(-c4ccccc4)cc3)C(=N)N2C2OC(CO)C(O)C(O)C2O)NC(=O)C(C(O)C2CNC(=N)N2)NC(=O)C(Cc2ccc(OC3OC(CO)C(OC4OC(CO)C(O)C(O)C4O)C(O)C3O)cc2)NC1=O (stereo not shown) [Example 66a]
Escherichia coli
  MIC Escherichia coli (GC 4560): 8 µg/mL (≈ 5.47 µM)
[1]
  median effective dose (ED50), Staphylococcus aureus-SMITH (GC 4543): >4
[2]
  Anatomical Pathology (Day 10), Heart: 0
  Anatomical Pathology (Day 10), Kidney: ++

## CC(c1ccccc1)C1NC(=O)CNC(=O)C(CO)NC(=O)C(C(O)C2CN(Cc3ccc4ccccc4c3)C(=N)N2C2OC(CO)C(O)C(O)C2O)NC(=O)C(C(O)C2CNC(=N)N2)NC(=O)C(Cc2ccc(OC3OC(CO)C(OC4OC(CO)C(O)C(O)C4O)C(O)C3O)cc2)NC1=O (stereo not shown) [Example 67]
Enterococcus sp.
  MIC Enterococcus avium (GC 4558): 64 µg/mL (≈ 44.6 µM)
Escherichia coli
  MIC Escherichia coli (GC 4560): 32 µg/mL (≈ 22.3 µM)
Streptococcus sp.; [3]
  MIC Streptococcus pneumoniae (GC 1894): 64 µg/mL (≈ 44.6 µM)
Streptococcus sp.; strain GC 1894
  MIC Streptococcus pneumoniae (GC 1894): 64 µg/mL (≈ 44.6 µM)
[1]
  median effective dose (ED50), Staphylococcus aureus-SMITH (GC 4543): >8
[2]
  Anatomical Pathology (Day 10), Heart: 0
  Anatomical Pathology (Day 10), Kidney: 0

## CC(c1ccccc1)C1NC(=O)CNC(=O)C(CO)NC(=O)C(C(O)C2CN(CCCCCCCCCCC(=O)O)C(=N)N2C2OC(CO)C(O)C(O)C2O)NC(=O)C(C(O)C2CNC(=N)N2)NC(=O)C(Cc2ccc(OC3OC(CO)C(OC4OC(CO)C(O)C(O)C4O)C(O)C3O)cc2)NC1=O (stereo not drawn) [Example 72, Cyclo[glycyl-β-methylphenylalanyl-O-(4-O-hexopyranosylhexopyranosyl)tyrosyl-3-(2-iminoimidazolidin-4-yl)seryl-3-[1-(10-carboxydecyl)-3-hexopyranosyl-2-iminoimidazolidin-4-yl]serylseryl]]
Enterococcus sp.
  MIC Enterococcus faecalis (GC 4553): 64 µg/mL (≈ 43.3 µM)
  MIC Enterococcus avium (GC 4558): 64 µg/mL (≈ 43.3 µM)
Escherichia coli
  MIC Escherichia coli (GC 4560): 32 µg/mL (≈ 21.6 µM)
Streptococcus sp.; [4]
  MIC Streptococcus pneumoniae (ATCC 6301): 64 µg/mL (≈ 43.3 µM)
Streptococcus sp.; [3]
  MIC Streptococcus pneumoniae (GC 1894): 16 µg/mL (≈ 10.8 µM)
Streptococcus sp.; [5]
  MIC Streptococcus pneumoniae (GC 4565): 64 µg/mL (≈ 43.3 µM)
Streptococcus sp.; [6]
  MIC Streptococcus pyogenes (GC 4563): 64 µg/mL (≈ 43.3 µM)
Streptococcus sp.; strain ATCC 6301
  MIC Streptococcus pneumoniae (ATCC 6301): 64 µg/mL (≈ 43.3 µM)
Streptococcus sp.; strain GC 1894
  MIC Streptococcus pneumoniae (GC 1894): 16 µg/mL (≈ 10.8 µM)
Streptococcus sp.; strain GC 4563
  MIC Streptococcus pyogenes (GC 4563): 64 µg/mL (≈ 43.3 µM)
Streptococcus sp.; strain GC 4565
  MIC Streptococcus pneumoniae (GC 4565): 64 µg/mL (≈ 43.3 µM)
[1]
  median effective dose (ED50), Staphylococcus aureus-SMITH (GC 4543): >8
[2]
  Anatomical Pathology (Day 10), Heart: 0
  Anatomical Pathology (Day 10), Kidney: ++

## CC(c1ccccc1)C1NC(=O)CNC(=O)C(CO)NC(=O)C(C(O)C2CN(Cc3ccc(C(C)(C)C)cc3)C(=N)N2C2OC(CO)C(O)C(O)C2O)NC(=O)C(C(O)C2CNC(=N)N2)NC(=O)C(Cc2ccc(OC3OC(CO)C(OC4OC5COC6(OC5C(O)C4O)C4CC5CC(C4)CC6C5)C(O)C3O)cc2)NC1=O (stereo not shown) [Example 77]
Enterococcus sp.; Enterococcus faecalis (GC 2242), broth dilution, 18 hours at 35° C.
  MIC Enterococcus faecalis (GC 2242): 16 µg/mL (≈ 10.2 µM)
Enterococcus sp.; Enterococcus faecalis (GC 2691), broth dilution, 18 hours at 35° C.
  MIC Enterococcus faecalis (GC 2691): 16 µg/mL (≈ 10.2 µM)
Enterococcus sp.; Enterococcus faecalis (GC 3059), broth dilution, 18 hours at 35° C.
  MIC Enterococcus faecalis (GC 3059): 16 µg/mL (≈ 10.2 µM)
Enterococcus sp.; strain ATCC 29212
  MIC Enterococcus faecalis (ATCC 29212): 16 µg/mL (≈ 10.2 µM)
Enterococcus sp.; strain GC 2242
  MIC Enterococcus faecalis (GC 2242): 16 µg/mL (≈ 10.2 µM)
Enterococcus sp.; strain GC 2243
  MIC Enterococcus faecium (GC 2243): 8 µg/mL (≈ 5.08 µM)
Enterococcus sp.; strain GC 2691
  MIC Enterococcus faecalis (GC 2691): 16 µg/mL (≈ 10.2 µM)
Enterococcus sp.; strain GC 3059
  MIC Enterococcus faecalis (GC 3059): 16 µg/mL (≈ 10.2 µM)
Enterococcus sp.; strain GC 4552
  MIC Enterococcus faecalis (GC 4552): 16 µg/mL (≈ 10.2 µM)
Enterococcus sp.
  MIC Enterococcus faecalis (GC 4553): 8 µg/mL (≈ 5.08 µM)
  MIC Enterococcus avium (GC 4558): 4 µg/mL (≈ 2.54 µM)
Enterococcus sp.; strain GC 4556
  MIC Enterococcus faecium (GC 4556): 16 µg/mL (≈ 10.2 µM)
Enterococcus sp.; strain GC 4557
  MIC Enterococcus faecium (GC 4557): 1 to 2 µg/mL
Enterococcus sp.; strain GC 6189
  MIC Enterococcus faecalis (GC 6189): 16 µg/mL (≈ 10.2 µM)
Escherichia coli
  MIC Escherichia coli (GC 4560): 4 µg/mL (≈ 2.54 µM)
Staphylococcus sp.
  MIC Coagulase Negative Staphylococcus (GC 4547): 4 µg/mL (≈ 2.54 µM)
  MIC Coagulase Negative Staphylococcus (GC 4548): 4 µg/mL (≈ 2.54 µM)
  MIC Coagulase Negative Staphylococcus (GC 4549): 4 to 8 µg/mL
  MIC Coagulase Negative Staphylococcus (GC 4551): 8 µg/mL (≈ 5.08 µM)
  MIC Coagulase Negative Staphylococcus (GC 6257): 2 µg/mL (≈ 1.27 µM)
  MIC Staphylococcus aureus (ATCC 29213): 8 to 16 µg/mL
  MIC Staphylococcus aureus (GC 1131): 16 µg/mL (≈ 10.2 µM)
  MIC Staphylococcus aureus (GC 3051): 8 to 16 µg/mL
  MIC Staphylococcus aureus (GC 3053): 16 µg/mL (≈ 10.2 µM)
  MIC Staphylococcus aureus (GC 4541): 4 to 8 µg/mL
  MIC Staphylococcus aureus (GC 4542): 8 to 16 µg/mL
  MIC Staphylococcus aureus (GC 4544): 16 µg/mL (≈ 10.2 µM)
  MIC Staphylococcus aureus (GC 4545): 8 µg/mL (≈ 5.08 µM)
  MIC Staphylococcus aureus SMITH (GC 4543): 8 µg/mL (≈ 5.08 µM)
  MIC Staphylococcus haemolyticus (GC 4546): 4 to 8 µg/mL
Staphylococcus sp.; strain SMITH GC 4543
  MIC Staphylococcus aureus-SMITH (GC 4543): 8 µg/mL (≈ 5.08 µM)
Streptococcus sp.; Streptococcus agalactiae (GC 4564), broth dilution, 18 hours at 35° C.
  MIC Streptococcus agalactiae (GC 4564): 1 µg/mL (≈ 0.635 µM)
Streptococcus sp.; [4]
  MIC Streptococcus pneumoniae (ATCC 6301): 2 µg/mL (≈ 1.27 µM)
Streptococcus sp.; [5]
  MIC Streptococcus pneumoniae (GC 4565): 2 to 4 µg/mL
Streptococcus sp.; [6]
  MIC Streptococcus pyogenes (GC 4563): 1 µg/mL (≈ 0.635 µM)
Streptococcus sp.; strain ATCC 6301
  MIC Streptococcus pneumoniae (ATCC 6301): 2 µg/mL (≈ 1.27 µM)
Streptococcus sp.; strain GC 4563
  MIC Streptococcus pyogenes (GC 4563): 1 µg/mL (≈ 0.635 µM)
Streptococcus sp.; strain GC 4564
  MIC Streptococcus agalactiae (GC 4564): 1 µg/mL (≈ 0.635 µM)
Streptococcus sp.; strain GC 4565
  MIC Streptococcus pneumoniae (GC 4565): 2 to 4 µg/mL
[1]
  median effective dose (ED50), Staphylococcus aureus-SMITH (GC 4543): 4 mg/kg
[2]
  Anatomical Pathology (Day 10), Heart: 0
  Anatomical Pathology (Day 10), Kidney: 0
